Results: patent US8334126B2, “Coryneform host-vector systems comprising a chromosomal ALR gene which is attenuated or eliminated and methods of using” (priority 2000, dated 2012)

What was measured:
[1] = test system: Corynebacterium glutamicum ATCC13032; experiment: Minimum inhibitory concentration, dilution antimicrobial susceptibility test (NCCLS M7-A4); format: cell-based; settings: sensitive control strain ATCC13032; MÜLLER-HINTON-Bouillon
From the text: (§1) The nutrient medium required for this test, “MÜLLER-HINTON-Bouillon”, was obtained from Merck KgaA (Darmstadt, Germany) and employed in accordance with the manufacturer's instructions. […] The plasmid DNA isolated from Corynebacterium glutamicum LP-6 with the aid of an alkaline lysis method (“NucleoBond Nucleic Acid Purification Kits and Cartridges User Manual (PT3167-1)”, Clonetech Laboratories GmbH, Heidelberg, Germany, 1997 I.B.R.) was then transferred to Corynebacterium glutamicum ATCC13032 by electrotransfer.

[2] = test system: Corynebacterium glutamicum ATCC13032[pTET3]; experiment: as above; format: cell-based; settings: transformed strain ATCC13032[pTET3]; MÜLLER-HINTON-Bouillon
From the text: as §1

[3] = test system: Corynebacterium glutamicum LP-6; settings: resistant test strain LP-6; MÜLLER-HINTON-Bouillon
From the text: as §1

## CN(C)[C@@H]1C(O)=C(C(N)=O)C(=O)[C@@]2(O)C(O)=C3C(=O)c4c(O)cccc4[C@@](C)(O)[C@H]3C[C@@H]12 [Tetracycline, tetracycline]
[1]
  Minimum inhibitory concentration: ≦0.75 μg tetracycline per ml
[2]
  Minimum inhibitory concentration: ≦12 μg tetracycline per ml
[3]
  Minimum inhibitory concentration: ≦12 μg tetracycline per ml
